According to patent US11220508B2, “TYK2 inhibitors and uses thereof” (Nimbus Lakshmi, Inc., priority 2016, dated 2022):

Tests used:
[1] = target: TYK2 JH1 kinase function (Homo sapiens (Human), UniProt P29597); experiment: Tyk2 radioactive kinase assay; assay type: biochemical; settings: active kinase assay, ATP at 10 μM
Protocol: (§1) Peptide substrate, [KKSRGDYMTMQIG], (20 μM) is prepared in reaction buffer (20 mM Hepes pH 7.5, 10 mM MgCl2, 1 mM EGTA, 0.02% Brij35, 0.02 mg/mL BSA, 0.1 mM […], 2 mM DTT, 1% DMSO. TYK2 (Invitrogen) kinase is added, followed by compounds in DMSO. 33PATP is added to initiate the reaction in ATP at 10 μM. Kinase reaction is incubated for 120 min at room temp and reactions are spotted onto P81 ion exchange paper (Whatman #3698-915), and then washed extensively in 0.75% phosphoric acid, prior to reading the radioactivity counts. For JAK2 (Invitrogen) kinase assay the peptide substrate poly[Glu:Tyr] (4:1), 0.2 mg/ml is used, in the reaction carried out the same as for TYK2.

[2] = target: human TYK2 (JH2domain-pseudokinase) (Homo sapiens (Human), UniProt P29597); experiment: TYK2 JH2 domain binding assay (KINOMEscan, DiscoveRx); settings: Table 4, JH2 binding assay
human TYK2 (JH2domain-pseudokinase), sequence (P29597 556-888): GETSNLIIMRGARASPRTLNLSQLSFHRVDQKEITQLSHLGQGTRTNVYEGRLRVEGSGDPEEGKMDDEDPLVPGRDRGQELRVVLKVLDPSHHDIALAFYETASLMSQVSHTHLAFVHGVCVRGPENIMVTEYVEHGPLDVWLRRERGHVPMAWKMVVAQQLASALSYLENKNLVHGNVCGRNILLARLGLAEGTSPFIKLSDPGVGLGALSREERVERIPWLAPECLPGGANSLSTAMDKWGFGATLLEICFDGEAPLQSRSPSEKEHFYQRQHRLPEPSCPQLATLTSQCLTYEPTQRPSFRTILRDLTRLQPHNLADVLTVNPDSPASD

[3] = target: JAK2 JH1 kinase function (Homo sapiens (Human), UniProt O60674); experiment: JAK2 radioactive kinase assay; assay type: biochemical; settings: active kinase assay, ATP at 10 μM
JAK2 JH1 kinase function, sequence (O60674 whole entry): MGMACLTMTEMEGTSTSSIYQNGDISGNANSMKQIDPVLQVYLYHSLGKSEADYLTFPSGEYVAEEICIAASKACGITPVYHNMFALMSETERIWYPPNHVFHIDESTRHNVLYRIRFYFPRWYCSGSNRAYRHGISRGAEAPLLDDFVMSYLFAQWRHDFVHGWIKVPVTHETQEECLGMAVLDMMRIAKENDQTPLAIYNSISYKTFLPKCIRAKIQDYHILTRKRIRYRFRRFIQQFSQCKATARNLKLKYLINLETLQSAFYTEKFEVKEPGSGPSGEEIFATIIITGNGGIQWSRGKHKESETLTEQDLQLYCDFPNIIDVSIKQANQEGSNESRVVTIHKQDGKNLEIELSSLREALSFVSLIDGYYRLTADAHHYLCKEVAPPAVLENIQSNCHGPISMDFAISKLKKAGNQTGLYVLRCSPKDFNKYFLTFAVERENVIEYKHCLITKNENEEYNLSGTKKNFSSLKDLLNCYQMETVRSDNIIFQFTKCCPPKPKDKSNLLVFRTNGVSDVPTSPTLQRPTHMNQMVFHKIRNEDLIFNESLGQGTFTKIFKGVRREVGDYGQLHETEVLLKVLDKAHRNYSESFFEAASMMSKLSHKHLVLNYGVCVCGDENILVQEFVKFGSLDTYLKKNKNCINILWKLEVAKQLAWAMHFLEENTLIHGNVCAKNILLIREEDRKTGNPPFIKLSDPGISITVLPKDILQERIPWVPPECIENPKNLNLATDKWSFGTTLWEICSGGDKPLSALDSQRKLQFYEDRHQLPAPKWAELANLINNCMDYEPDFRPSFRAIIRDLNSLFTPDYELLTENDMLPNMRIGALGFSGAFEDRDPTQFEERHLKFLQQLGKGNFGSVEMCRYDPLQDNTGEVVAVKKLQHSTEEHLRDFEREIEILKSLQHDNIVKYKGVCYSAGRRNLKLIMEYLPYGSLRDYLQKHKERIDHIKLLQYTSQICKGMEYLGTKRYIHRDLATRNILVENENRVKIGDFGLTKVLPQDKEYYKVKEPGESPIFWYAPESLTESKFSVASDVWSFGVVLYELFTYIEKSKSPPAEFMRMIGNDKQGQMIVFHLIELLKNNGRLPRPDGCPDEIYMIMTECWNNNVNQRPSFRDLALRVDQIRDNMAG
Protocol: as §1

TYK2 JH1 kinase function, sequence (P29597 whole entry): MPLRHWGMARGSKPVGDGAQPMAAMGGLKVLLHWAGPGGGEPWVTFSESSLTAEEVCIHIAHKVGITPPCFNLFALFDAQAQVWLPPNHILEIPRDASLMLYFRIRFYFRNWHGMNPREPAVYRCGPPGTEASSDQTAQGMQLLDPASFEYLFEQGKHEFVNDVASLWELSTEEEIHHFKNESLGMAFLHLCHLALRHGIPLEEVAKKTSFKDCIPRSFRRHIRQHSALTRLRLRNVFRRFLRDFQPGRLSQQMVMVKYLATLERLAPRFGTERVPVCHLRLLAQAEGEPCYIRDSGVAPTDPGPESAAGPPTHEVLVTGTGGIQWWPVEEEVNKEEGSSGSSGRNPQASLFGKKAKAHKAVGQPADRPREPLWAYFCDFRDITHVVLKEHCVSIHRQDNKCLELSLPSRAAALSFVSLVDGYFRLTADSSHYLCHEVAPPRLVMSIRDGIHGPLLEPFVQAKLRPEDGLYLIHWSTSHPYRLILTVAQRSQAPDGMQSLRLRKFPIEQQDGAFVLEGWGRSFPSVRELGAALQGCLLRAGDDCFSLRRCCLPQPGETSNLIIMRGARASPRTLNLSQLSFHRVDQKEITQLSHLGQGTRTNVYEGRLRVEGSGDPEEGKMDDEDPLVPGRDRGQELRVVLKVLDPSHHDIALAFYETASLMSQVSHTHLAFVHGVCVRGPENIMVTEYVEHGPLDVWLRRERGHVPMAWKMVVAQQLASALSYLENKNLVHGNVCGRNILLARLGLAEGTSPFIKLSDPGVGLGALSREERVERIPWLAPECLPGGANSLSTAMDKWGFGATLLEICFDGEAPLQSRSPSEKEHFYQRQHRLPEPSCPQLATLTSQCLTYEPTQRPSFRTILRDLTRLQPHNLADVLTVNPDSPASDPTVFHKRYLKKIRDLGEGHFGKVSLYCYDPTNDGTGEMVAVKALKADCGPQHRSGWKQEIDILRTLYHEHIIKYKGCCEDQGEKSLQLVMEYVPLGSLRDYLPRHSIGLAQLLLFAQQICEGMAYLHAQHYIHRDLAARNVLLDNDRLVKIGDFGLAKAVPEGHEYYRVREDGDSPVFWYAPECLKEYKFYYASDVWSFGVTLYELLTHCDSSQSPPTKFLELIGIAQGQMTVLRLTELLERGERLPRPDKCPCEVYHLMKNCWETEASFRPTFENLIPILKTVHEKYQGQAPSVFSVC

inhibitory activity against TYK2 JH1 kinase function [1] | Kd [2] [µM] | inhibitory activity against JAK2 JH1 kinase function [3] | Structure (SMILES)
no detectable inhibitory activity |  | no detectable inhibitory activity | COc1c(Nc2cc(NC(=O)C3CC3)ncc2-c2ncc(F)s2)cccc1-c1nnn(C)n1 [VIII-2, N-(5-(5-fluorothiazol-2-yl)-4-((2-methoxy-3-(2-methyl-2H-tetrazol-5-yl)phenyl)amino)pyridin-2-yl)cyclopropanecarboxamide]
no detectable inhibitory activity |  | no detectable inhibitory activity | COc1c(Nc2cc(NC(=O)C3CC3)ncc2-c2ncc(Cl)s2)cccc1-c1nnn(C)n1 [VIII-1, N-(5-(5-chlorothiazol-2-yl)-4-((2-methoxy-3-(2-methyl-2H-tetrazol-5-yl)phenyl)amino)pyridin-2-yl)cyclopropanecarboxamide]
no detectable inhibitory activity |  | no detectable inhibitory activity | COc1c(Nc2cc(NC(=O)C3CC3)ncc2-c2nnc(C(F)(F)F)o2)cccc1-c1ncn(C)n1 [VIII-3, N-(4-((2-methoxy-3-(1-methyl-1H-1,2,4-triazol-3-yl)phenyl)amino)-5-(5-(trifluoromethyl)-1,3,4-oxadiazol-2-yl)pyridin-2-yl)cyclopropanecarboxamide]
no detectable inhibitory activity |  | no detectable inhibitory activity | COC(=O)c1nnc(-c2cnc(NC(=O)C3CC3)cc2Nc2cccc(-c3ncn(C)n3)c2OC)o1 [VIII-4, methyl 5-(6-(cyclopropanecarboxamido)-4-((2-methoxy-3-(1-methyl-1H-1,2,4-triazol-3-yl)phenyl)amino)pyridin-3-yl)-1,3,4-oxadiazole-2-carboxylate]

The next lines start with the molecule.

Structure (SMILES) | inhibitory activity against TYK2 JH1 kinase function [1] | Kd [2] [µM] | inhibitory activity against JAK2 JH1 kinase function [3]
COCc1ccnc(Nc2cc(Nc3cccc(-c4nnn(C)n4)c3OC)c3c(=O)n(C)[nH]c3n2)c1 [Compound I-2, 4-((2-methoxy-3-(2-methyl-2H-tetrazol-5-yl)phenyl)amino)-6-((4-(methoxymethyl)pyridin-2-yl)amino)-2-methyl-1,2-dihydro-3H-pyrazolo[3,4-b]pyridin-3-one] | no detectable inhibitory activity |  | 
COc1c(Cl)cccc1Nc1cc(Nc2cccc(N3CC(OC)C3)n2)nc2[nH]n(C)c(=O)c12 [Compound I-116, 4-((3-chloro-2-methoxyphenyl)amino)-6-((6-(3-methoxyazetidin-1-yl)pyridin-2-yl)amino)-2-methyl-1,2-dihydro-3H-pyrazolo[3,4-b]pyridin-3-one] |  | > 0.01 | 
COc1c(Nc2cc(NC(=O)C3CC3)nc3[nH]n(C)c(=O)c23)cccc1-c1nnn(C)n1 [Compound I-1, N-(4-((2-methoxy-3-(2-methyl-2H-tetrazol-5-yl)phenyl)amino)-2-methyl-3-oxo-2,3-dihydro-1H-pyrazolo[3,4-b]pyridin-6-yl)cyclopropanecarboxamide] | no detectable inhibitory activity |  | 
